Data published in US5385831A, “Method for producing a mammalian G protein coupled glutamate receptor” (priority 1993, dated 1995).
pEC50: −log10 of the molar value.

What was measured:
[1] = target: T1, GluG R encoded by clone 45-A (Rattus norvegicus, UniProt P23385); test: Voltage-clamp assay of L-glutamic acid analogs at saturating concentrations in injected oocytes; assay type: cell-based; design: expressed in transfected cells; host or cells: Xenopus oocytes injected with in vitro transcribed (T7, pVEGT') clone 45-A RNA
T1 sequence (P23385 19-1199): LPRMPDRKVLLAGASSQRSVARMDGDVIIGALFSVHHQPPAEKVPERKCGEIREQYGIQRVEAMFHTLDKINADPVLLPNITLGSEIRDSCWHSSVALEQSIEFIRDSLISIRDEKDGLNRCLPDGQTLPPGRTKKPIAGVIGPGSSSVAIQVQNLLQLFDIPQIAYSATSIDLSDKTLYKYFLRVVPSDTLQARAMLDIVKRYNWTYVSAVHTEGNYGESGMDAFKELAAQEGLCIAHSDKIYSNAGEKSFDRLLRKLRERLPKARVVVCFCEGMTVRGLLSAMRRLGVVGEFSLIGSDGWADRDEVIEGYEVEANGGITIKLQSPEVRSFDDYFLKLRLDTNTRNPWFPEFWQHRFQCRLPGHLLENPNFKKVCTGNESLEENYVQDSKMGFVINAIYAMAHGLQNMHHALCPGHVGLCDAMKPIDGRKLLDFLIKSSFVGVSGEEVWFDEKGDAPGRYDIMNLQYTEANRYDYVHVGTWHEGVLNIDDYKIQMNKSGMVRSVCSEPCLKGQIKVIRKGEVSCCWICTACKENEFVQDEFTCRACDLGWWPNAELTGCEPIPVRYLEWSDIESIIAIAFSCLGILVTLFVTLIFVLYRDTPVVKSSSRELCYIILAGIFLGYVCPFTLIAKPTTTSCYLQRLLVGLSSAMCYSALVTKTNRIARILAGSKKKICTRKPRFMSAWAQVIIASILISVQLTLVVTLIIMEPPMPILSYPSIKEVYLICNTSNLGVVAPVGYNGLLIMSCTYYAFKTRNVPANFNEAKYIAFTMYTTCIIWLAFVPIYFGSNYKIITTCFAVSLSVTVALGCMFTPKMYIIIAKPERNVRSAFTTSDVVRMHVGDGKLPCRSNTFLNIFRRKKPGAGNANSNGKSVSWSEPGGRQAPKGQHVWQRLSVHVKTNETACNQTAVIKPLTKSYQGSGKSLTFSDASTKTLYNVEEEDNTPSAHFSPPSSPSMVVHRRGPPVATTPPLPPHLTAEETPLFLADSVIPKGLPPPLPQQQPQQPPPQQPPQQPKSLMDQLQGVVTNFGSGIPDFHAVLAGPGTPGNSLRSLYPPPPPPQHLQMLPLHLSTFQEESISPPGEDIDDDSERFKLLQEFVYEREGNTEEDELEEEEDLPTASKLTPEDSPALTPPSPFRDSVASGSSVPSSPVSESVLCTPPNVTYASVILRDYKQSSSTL

[2] = test system: glutamate G protein coupled receptor; test: Voltage-clamp assay of antagonist inhibition of glutamic acid-evoked current in injected oocytes; assay type: cell-based, rat; settings: 1 mM DL-AP3
Protocol: Voltage clamp assays were also carried out on injected oocytes to measure the inhibition by the putative glutamate G protein coupled receptor antagonist, 2-amino-3-phosphonopropionic acid (AP3).

GluG R = test: Voltage-clamp assay of oocytes injected with RNA from rat cerebellum cDNA library pools; assay type: cell-based
Protocol: Plasmid DNA prepared from each of the 10 pools of 100,000 clones, which in total represented one sublibrary of one million clones of the cerebellum cDNA library, was purified by cesium chloride gradient ultracentrifugation. The DNA was transcribed in vitro with T7 RNA polymerase (Pharmacia) in the presence of capped nucleotide (GpppG, Pharamcia). […] The transcription reaction tubes were set up by adding 12 μl of 5× transcription buffer (Stratagene Cloning Systems, La Jolla, Calif.), 3 μl each of 10 mM ATP, CTP, GTP, and UTP, 6 μl of 10 mM GpppG (Pharmacia), 6 μl of 1 mg/ml BSA, 3 μl of 200 mM DTT, 1.5 μl of 40 U/μl RNasin (ProMega Biotech, Madison, Wis.), 8.5 μl of water, 10 μl of cDNA containing 5 to 10 μg DNA, and 1 μl of 70 U/μl T7 RNA polymerase. […] Forty microliters of water was added to the radiolabeled reactions, and 1 μl was removed from each sample and counted to determine total counts. […] The samples were centrifuged to collect the RNA and the RNA pellets were counted to determine the counts incorporated into RNA. […]
The RNA from each of the 10 sublibraries were injected into oocytes as described above and translation was allowed for four days. Expression of GluG R activity was assessed by voltage-clamp assay as described above. […]

[3] = target: T1, GluG R encoded by clone 45-A; settings: read-out: Glutamate Analog Potencies (EC50); Xenopus oocytes injected with 45-A RNA; responses normalized to subsequent response to 100 μM L-glutamic acid

With `C=C(C)[C@H]1CN[C@H](C(=O)O)[C@H]1CC(=O)O` [kainic acid] the “response normalized to a subsequent response to 100 μM L-glutamate (effective/ineffective)” value (“response normalized … (effective/ineffective)” for short) ([1]; 1 mM) was “ineffective”.
With `NC(CP(=O)(O)O)C(=O)O` (racemic) [DL-AP3, 2-amino-3-phosphonopropionic acid] the “current evoked by 10 μM glutamic acid, reduced to % of the control” value [2] was 59.3±7.3%.
In the case of `N[C@@H](Cn1oc(=O)[nH]c1=O)C(=O)O` [Quisqualic acid, quisqualic acid], the “peak current in response to quisqualate” value (GluG R; oocyte injected with approximately 100 ng RNA from subfractionated pool of 14,000 colonies, estimated from a digital panel meter) was “approximately 1300 nA” and the “signal with administration of quisqualate to the oocyte” value (GluG R; sublibrary pool Z93-1.9 (100,000 clones)) was “produced a signal”.
With `CN[C@H](CC(=O)O)C(=O)O` [NMDA, N-methyl-D-aspartic acid] the “response normalized … (effective/ineffective)” value ([1]; 100 μM NMDA + 10 μM glycine) was “ineffective”.
In the case of `NC(CCP(=O)(O)O)C(=O)O` (stereo not drawn) [APB, 2-amino-4-phosphonobytyric acid], the “response normalized … (effective/ineffective)” value ([1]; 100 μM) was “ineffective”.
`N[C@@H](CC(=O)O)C(=O)O` [aspartic acid] was tested, and the “response normalized … (effective/ineffective)” value ([1]; 1 mM) was “ineffective”.
`N[C@H](C(=O)O)c1cc(=O)[nH]o1` [Ibotenic acid, ibotenic acid] showed a pEC50 [3] of 4.49.
In the case of `Cc1onc(O)c1CC(N)C(=O)O` (stereo not drawn) [AMPA, α-amino-3-hydroxy-5-methyl-isoxazole-4-propionic acid], the “response normalized … (effective/ineffective)” value ([1]; 100 μM) was “ineffective”.
